Source: EPA's ToxRefDB 2

Assays:
rat [1] = conditions: Prenatal developmental toxicity study; wistar; Inhalation; Whole-Body; dose end: 20 GD; group: developmental; developmental / developmental malformation / heart / dilatation
rabbit [2] = conditions: Prenatal developmental toxicity study; himalayan; Inhalation; Whole-Body; dose end: 29 GD; group: developmental; developmental / developmental malformation / heart / adhesions + developmental / developmental malformation / kidney / dilatation
rat [3] = conditions: Multigenerational reproductive toxicity study, wistar, Oral, Feed, dose end: 2 generation
rat [4] = conditions: Prenatal developmental toxicity study, sprague dawley, Oral, Gavage/Intubation, dose end: 20 GD
rabbit [5] = conditions: Prenatal developmental toxicity study, new zealand white, Oral, Gavage/Intubation, dose end: 28 GD
rat [6] = conditions: Combined chronic toxicity/carcinogenicity, fischer, Oral, Feed, dose end: 24 month
mouse [7] = conditions: Carcinogenicity, cd1, Oral, Feed, dose end: 90 week
dog = conditions: Chronic toxicity, beagle, Oral, Feed, dose end: 52 week
rabbit [8] = conditions: Prenatal developmental toxicity study, new zealand white, Oral, Gavage/Intubation, dose end: 18 GD
rat [9] = conditions: Prenatal developmental toxicity study, sprague dawley, Oral, Gavage/Intubation, dose end: 15 GD
rat [10] = conditions: Prenatal developmental toxicity study, sprague dawley, Inhalation, Whole-Body, dose end: 15 GD
rabbit [11] = conditions: Prenatal developmental toxicity study, new zealand white, Inhalation, Whole-Body, dose end: 18 GD
rabbit [12] = conditions: Prenatal developmental toxicity study, dutch, Inhalation, Whole-Body, dose end: 18 GD
rat [13] = conditions: Prenatal developmental toxicity study, sprague dawley, Inhalation, Whole-Body, dose end: 15 GD; remark: listed apart in the source
rat [14] = conditions: Prenatal developmental toxicity study, fischer, Inhalation, Whole-Body, dose end: 15 GD
mouse [15] = conditions: Multigenerational reproductive toxicity study, cd1, Oral, Water, dose end: 2 generation
[16] = group: offspring, developmental / offspring survival late / viability index / viability index + systemic / in life observation / body weight / offspring (pup…
[17] = group: parental, systemic / pathology microscopic / thyroid gland / colloid content
[18] = group: parental, systemic / pathology microscopic / thyroid gland / colloid content + systemic / organ weight / thyroid gland / absolute + systemic / organ …
[19] = group: developmental, developmental / developmental malformation / bone / incomplete ossification + developmental / developmental malformation / bone / short + …
[20] = group: maternal, systemic / in life observation / body weight / body weight gain + systemic / in life observation / clinical signs / salivation + systemic / …
[21] = group: developmental, developmental / developmental malformation / bone / [other] + developmental / developmental malformation / bone / extra ossification site + …
[22] = group: maternal, systemic / in life observation / body weight / body weight gain + systemic / in life observation / food consumption / food consumption
[23] = group: cholinesterase, cholinesterase / cholinesterase / cholinesterase / plasma cholinesterase (che)
[24] = group: systemic, systemic / clinical chemistry / alanine aminotransferase (alt/sgpt) / alanine aminotransferase (alt/sgpt) + systemic / clinical chemistry / …
[25] = group: cholinesterase, cholinesterase / cholinesterase / cholinesterase / brain cholinesterase (che) + cholinesterase / cholinesterase / cholinesterase / …
[26] = group: systemic, systemic / hematology / mean corpuscular (cell) volume (mcv) / mean corpuscular (cell) volume (mcv) + systemic / hematology / mean …
[27] = group: cholinesterase, cholinesterase / cholinesterase / cholinesterase / plasma cholinesterase (che) + cholinesterase / cholinesterase / cholinesterase / …
[28] = group: systemic, systemic / hematology / erythrocyte (rbc) count differential / erythrocyte (rbc) + systemic / hematology / hematocrit (hct) / hematocrit (…
[29] = group: developmental, developmental / developmental malformation / bone / full supernumerary
[30] = group: maternal, systemic / in life observation / body weight / body weight gain + systemic / in life observation / food consumption / food consumption + …
[31] = group: developmental, developmental / developmental malformation / bone / bent + developmental / developmental malformation / bone / full supernumerary + …
[32] = group: maternal, systemic / in life observation / body weight / body weight gain
[33] = group: maternal, systemic / in life observation / body weight / body weight gain + systemic / in life observation / clinical signs / urine staining - …
[34] = group: developmental, developmental / developmental malformation / bone / wavy + developmental / developmental malformation / general / [other] + developmental / …
[35] = group: developmental, developmental / developmental malformation / general / [other] + systemic / in life observation / body weight / fetal weight
[36] = group: maternal, reproductive / reproductive performance / resorptions / resorptions
[37] = group: developmental, developmental / developmental malformation / bone / [other] + developmental / developmental malformation / bone / absent + developmental / …
[38] = group: maternal, reproductive / reproductive performance / estrous cycle / corpora lutea + reproductive / reproductive performance / implantations / …
[39] = group: developmental, developmental / developmental malformation / bone / delayed ossification + developmental / developmental malformation / bone / misaligned + …
[40] = group: maternal, reproductive / reproductive performance / postimplantation loss / postimplantation loss + systemic / hematology / hemoglobin (hgb) / …
[41] = group: developmental, developmental / developmental malformation / bone / [other] + developmental / developmental malformation / bone / fused + developmental / …
[42] = group: developmental, developmental / developmental malformation / bone / [other] + developmental / developmental malformation / heart / [other] + systemic / in …
[43] = group: developmental, developmental / developmental malformation / bone / [other] + developmental / developmental malformation / bone / bipartite ossification + …
[44] = group: developmental, developmental / developmental malformation / bone / incomplete ossification + developmental / developmental malformation / bone / unossified
[45] = group: maternal, reproductive / reproductive performance / implantations / implantations + systemic / hematology / erythrocyte (rbc) count differential / …
[46] = group: maternal, systemic / organ weight / liver / absolute
[47] = group: offspring, systemic / in life observation / body weight / offspring (pup) weight
[48] = group: parental, systemic / organ weight / kidney / relative to body weight + systemic / organ weight / epididymis / relative to body weight + systemic / …

## CC(C)CO [2-Methyl-1-propanol]
Rat [1]
  LEL: 10 ppm
  LOAEL: > 10 ppm
  NEL: 2.5 ppm
  NOAEL: ≥ 10 ppm
Rabbit [2]
  LEL: 10 mg/L
  LOAEL: > 10 ppm
  NEL: 2.5 ppm
  NOAEL: ≥ 10 ppm

## Cc1[nH]n(C)c(=O)c1C(=O)c1ccc(C(F)(F)F)cc1S(C)(=O)=O [Pyrasulfotole]
Rat [3]; [16]
  LEL: 3.68 mg/kg/day
  LOAEL: > 354 mg/kg/day
  NEL: < 3.68 mg/kg/day
  NOAEL: ≥ 354 mg/kg/day
Rat [3]; [17]
  LOAEL: 2.5 mg/kg/day
  NOAEL: < 2.5 mg/kg/day
Rat [3]; [18]
  LEL: 2.5 mg/kg/day
  NEL: < 2.5 mg/kg/day
Rat [4]; [19]
  LEL: 100 mg/kg/day
  LOAEL: 100 mg/kg/day
  NEL: 10 mg/kg/day
  NOAEL: 10 mg/kg/day
Rat [4]; [20]
  LEL: 100 mg/kg/day
  LOAEL: 100 mg/kg/day
  NEL: 10 mg/kg/day
  NOAEL: 10 mg/kg/day
Rabbit [5]; [21]
  LEL: 75 mg/kg/day
  LOAEL: 75 mg/kg/day
  NEL: 10 mg/kg/day
  NOAEL: 10 mg/kg/day
Rabbit [5]; [22]
  LEL: 250 mg/kg/day
  LOAEL: 250 mg/kg/day
  NEL: 75 mg/kg/day
  NOAEL: 75 mg/kg/day

## CCCCSP(=O)(SCCCC)SCCCC [Tribufos]
Rat [6]; [23]
  LEL: 0.2 mg/kg/day
  LOAEL: 0.2 mg/kg/day
  NEL: < 0.2 mg/kg/day
  NOAEL: < 0.2 mg/kg/day
Rat [6]; [24]
  LEL: 1.8 mg/kg/day
  LOAEL: > 16.8 mg/kg/day
  NEL: 0.2 mg/kg/day
  NOAEL: ≥ 16.8 mg/kg/day
Mouse [7]; [25]
  LEL: 1.64 mg/kg/day
  LOAEL: 1.64 mg/kg/day
  NEL: < 1.64 mg/kg/day
  NOAEL: < 1.64 mg/kg/day
Mouse [7]; [26]
  LEL: 1.64 mg/kg/day
  LOAEL: 1.64 mg/kg/day
  NEL: < 1.64 mg/kg/day
  NOAEL: < 1.64 mg/kg/day
dog; [23]
  LEL: 0.4 mg/kg/day
  LOAEL: 0.4 mg/kg/day
dog; [27]
  NEL: 0.1 mg/kg/day
  NOAEL: 0.1 mg/kg/day
dog; group: systemic, systemic / hematology / erythrocyte (rbc) count differential / erythrocyte (rbc)
  LOAEL: 1.7 mg/kg/day
dog; [28]
  LEL: 1.7 mg/kg/day
  NEL: 0.4 mg/kg/day
  NOAEL: 0.4 mg/kg/day

## O=C(O)COc1ccc(Cl)cc1Cl.OCCNCCO [2,4-Dichlorophenoxyacetic acid diethanolamine]
Rabbit [8]; [29]
  LEL: 60 mg/kg/day
  LOAEL: > 60 mg/kg/day
  NEL: 30 mg/kg/day
  NOAEL: ≥ 60 mg/kg/day
Rabbit [8]; [22]
  LEL: 30 mg/kg/day
  LOAEL: 30 mg/kg/day
Rabbit [8]; [30]
  NEL: 15 mg/kg/day
  NOAEL: 15 mg/kg/day
Rat [9]; [31]
  LEL: 75 mg/kg/day
  LOAEL: 75 mg/kg/day
  NEL: 15 mg/kg/day
  NOAEL: 15 mg/kg/day
Rat [9]; [32]
  LEL: 75 mg/kg/day
  LOAEL: 75 mg/kg/day
Rat [9]; [33]
  NEL: 15 mg/kg/day
  NOAEL: 15 mg/kg/day

## CCOCCOC(C)=O [2-Ethoxyethyl acetate]
Rat [10]; [34]
  LOAEL: > 600 ppm
  NOAEL: ≥ 600 ppm
Rat [10]; [35]
  LEL: 130 ppm
  NEL: < 130 ppm
Rat [10]; [36]
  LEL: 390 ppm
  LOAEL: > 600 ppm
  NEL: 130 ppm
  NOAEL: ≥ 600 ppm
Rabbit [11]; [37]
  LOAEL: > 300 ppm
  NEL: 50 ppm
  NOAEL: ≥ 300 ppm
Rabbit [11]; group: developmental, developmental / developmental malformation / bone / incomplete ossification + developmental / developmental malformation / bone / misshapen…
  LEL: 100 ppm
Rabbit [11]; [38]
  LOAEL: > 300 ppm
  NEL: 50 ppm
  NOAEL: ≥ 300 ppm
Rabbit [11]; group: maternal, systemic / hematology / platelet / platelet + systemic / in life observation / body weight / body weight gain + systemic / in life …
  LEL: 100 ppm
Rabbit [12]; [39]
  LOAEL: > 400 ppm
  NEL: 25 ppm
  NOAEL: ≥ 400 ppm
Rabbit [12]; group: developmental, developmental / developmental malformation / bone / delayed ossification + developmental / developmental malformation / spleen / pale + …
  LEL: 100 ppm
Rabbit [12]; [40]
  LEL: 400 ppm
  LOAEL: > 400 ppm
  NEL: 100 ppm
  NOAEL: ≥ 400 ppm
Rat [13]; [41]
  LOAEL: > 600 mg/kg/day
  NOAEL: ≥ 600 mg/kg/day
Rat [13]; [42]
  LEL: 130 mg/kg/day
  NEL: < 130 mg/kg/day
Rat [13]; [36]
  LEL: 390 mg/kg/day
  LOAEL: > 600 mg/kg/day
  NEL: 130 mg/kg/day
  NOAEL: ≥ 600 mg/kg/day
Rat [14]; [43]
  LOAEL: > 300 ppm
  NOAEL: ≥ 300 ppm
Rat [14]; [44]
  LEL: 50 ppm
  NEL: < 50 ppm
Rat [14]; [45]
  LOAEL: > 300 ppm
  NOAEL: ≥ 300 ppm
Rat [14]; [46]
  LEL: 50 ppm
  NEL: < 50 ppm

## CC(=O)OCCOCCOCCOC(C)=O [Triethylene glycol diacetate]
Mouse [15]; [47]
  LEL: 4000 mg/kg/day
  LOAEL: > 4000 mg/kg/day
  NEL: 2000 mg/kg/day
  NOAEL: ≥ 4000 mg/kg/day
Mouse [15]; group: parental, systemic / organ weight / kidney / relative to body weight
  NEL: 2000 mg/kg/day
Mouse [15]; [48]
  LEL: 4000 mg/kg/day
  LOAEL: > 4000 mg/kg/day
  NOAEL: ≥ 4000 mg/kg/day
